Data taken from article PMC5291411, “Cytotoxic conjugates of betulinic acid and substituted triazoles prepared by Huisgen Cycloaddition from 30-azidoderivatives” (PLoS ONE, 2017).
pIC50: −log10 of the molar value.

How the values were obtained:
Format in all cases: cell-based
CCRF-CEM = experiment: Cytotoxic MTS assay, CCRF-CEM; conditions: Homo sapiens, 72 h, T-lymphoblastic leukemia
From the text: (§1) Cytotoxic activity of all synthesized compounds was investigated in vitro against eight human cancer cell lines and two non-tumor fibroblasts using the standard MTS test (Table 1). The cancer cell lines were derived from T-lymphoblastic leukemia CCRF-CEM, leukemia K562 and their multiresistant counterparts expressing P-glycoprotein, MRP1 and LRP proteins (CEM-DNR, K562-TAX), solid tumors including lung (A549) and colon (HCT116, HCT116p53-/-) carcinomas, osteosarcoma cell line (U2OS), and for comparison, tests were performed on two human non-cancer fibroblast cell lines (BJ, MRC-5).
(§2) Biological assays were performed in concordance with our previous publications [[29], [58]; [60]; [61]]. All cells (if not indicated otherwise) were purchased from the American Tissue Culture Collection (ATCC). The CCRF-CEM line is derived from T lymphoblastic leukemia, evincing high chemosenzitivity, K562 represent cells from an acute myeloid leukemia patient sample with bcr-abl translocation, U2OS line is derived from osteosarcoma, HCT116 is colorectal tumor cell line and its p53 gene knock-down counterpart (HCT116p53-/-, Horizon Discovery Ltd, UK) is a model of human cancers with p53 mutation frequently associated with poor prognosis, A549 line is lung adenocarcinoma. The daunorubicin resistant subline of CCRF-CEM cells (CEM-DNR bulk) and paclitaxel resistant subline K562-TAX were selected in our laboratory by the cultivation of maternal cell lines in increasing concentrations of daunorubicine or paclitaxel, respectively. The CEM-DNR bulk cells overexpress MRP-1 and P-glycoprotein protein, while K562-TAX cells overexpress P-glycoprotein only. Both proteins belong to the family of ABC transporters and are involved in the primary and/or acquired multidrug resistance phenomenon. MRC-5 and BJ cell lines were used as a non-tumor control and represent human fibroblasts. The cells were maintained in nunc/corning 80 cm^2 plastic tissue culture flasks and cultured in cell culture medium according to ATCC or Horizon recommendations (DMEM/RPMI 1640 with 5 g/L glucose, 2 mM glutamine, 100 U/mL penicillin, […] streptomycin, 10% fetal calf serum, and NaHCO3).
(§3) MTS assay was performed at Institute of Molecular and Translational Medicine by robotic platform (HighResBiosolutions). Cell suspensions were prepared and diluted according to the particular cell type and the expected target cell density (25000–35000 cells/mL based on cell growth characteristics). Cells were added by automatic pipetor (30 μL) into 384 well microtiter plates. All tested compounds were dissolved in 100% DMSO and four-fold dilutions of the intended test concentration were added in 0.15 μL aliquots at time zero to the microtiter plate wells by the echoacustic non-contact liquid handler Echo550 (Labcyte). The experiments were performed in technical duplicates and three biological replicates at least. The cells were incubated with the tested compounds for 72 h at 37°C, in a 5% CO2 atmosphere at 100% humidity. At the end of the incubation period, the cells were assayed by using the MTS test. Aliquots (5 μL) of the MTS stock solution were pipetted into each well and incubated for additional 1–4 h. After this incubation period, the optical density (OD) was measured at 490 nm with an Envision reader (Perkin Elmer). Tumor cell survival (TCS) was calculated by using the following equation: TCS = (ODdrug-exposed well/mean ODcontrol wells) × 100%. The IC50 value, the drug concentration that is lethal to 50% of the tumor cells, was calculated from the appropriate dose-response curves in Dotmatics software.

CEM-DNR = experiment: Cytotoxic MTS assay, CEM-DNR; conditions: Homo sapiens, 72 h, daunorubicin resistant subline of CCRF-CEM
From the text: as §1, §2, §3

K562 = experiment: Cytotoxic MTS assay, K562; conditions: Homo sapiens, 72 h, leukemia
From the text: as §1, §2, §3

K562-TAX = experiment: Cytotoxic MTS assay, K562-TAX; conditions: Homo sapiens, 72 h, paclitaxel resistant subline of K562
From the text: as §1, §2, §3

A549 = experiment: Cytotoxic MTS assay, A549; conditions: Homo sapiens, 72 h, lung adenocarcinoma
From the text: as §1, §2, §3

HCT116 = experiment: Cytotoxic MTS assay, HCT116; conditions: Homo sapiens, HCT-116, 72 h, colorectal tumor
From the text: as §1, §2, §3

HCT116p53-/- = experiment: Cytotoxic MTS assay, HCT116p53-/-; conditions: Homo sapiens, 72 h, p53 knock-down colorectal tumor
From the text: as §1, §2, §3

U2OS = experiment: Cytotoxic MTS assay, U2OS; conditions: Homo sapiens, 72 h, osteosarcoma
From the text: as §1, §2, §3

BJ = experiment: Cytotoxic MTS assay, BJ fibroblasts; conditions: Homo sapiens, 72 h, non-tumor fibroblasts
From the text: as §1, §2, §3

MRC-5 = experiment: Cytotoxic MTS assay, MRC-5 fibroblasts; conditions: Homo sapiens, MRC5, 72 h, non-tumor fibroblasts
From the text: as §1, §2, §3

Row | SMILES | pIC50 (CCRF-CEM) | pIC50 (CEM-DNR) | pIC50 (K562) | pIC50 (K562-TAX) | pIC50 (A549) | pIC50 (HCT116) | pIC50 (HCT116p53-/-) | pIC50 (U2OS) | pIC50 (BJ) | pIC50 (MRC-5)
1 | C=C(C)[C@@H]1CC[C@]2(C(=O)O)CC[C@]3(C)[C@H](CC[C@@H]4[C@@]5(C)CC[C@H](O)C(C)(C)[C@@H]5CC[C@]43C)[C@@H]12 [Compound 1, betulinic acid] | 4.34 | 4.34 | 4.40 | 4.37 | 4.36 | 4.42 | < 4.30 | < 4.30 | 4.42 | 4.48
2 | C=C(CN=[N+]=[N-])[C@@H]1CC[C@]2(C(=O)O)CC[C@]3(C)C(CCC4[C@@]5(C)CC[C@H](O)C(C)(C)C5CC[C@]43C)C12 (stereo partly drawn) [Compound 8, 30-azidobetulinic acid] | 4.66 | 4.59 | 4.76 | 4.62 | 4.64 | 4.59 | 4.62 | 4.60 | 4.47 | 4.72
3 | C=C(Cn1cc(-c2ccccc2)nn1)[C@@H]1CC[C@]2(C(=O)O)CC[C@]3(C)C(CCC4[C@@]5(C)CC[C@H](OC(C)=O)C(C)(C)C5CC[C@]43C)C12 (stereo partly drawn) [Compound 9a] | 4.87 | 4.71 | 4.82 | 4.72 | 4.63 | 4.60 | 4.51 | 4.61 | < 4.30 | 4.49
4 | C=C(Cn1cc(-c2cccnc2)nn1)[C@@H]1CC[C@]2(C(=O)O)CC[C@]3(C)C(CCC4[C@@]5(C)CC[C@H](OC(C)=O)C(C)(C)C5CC[C@]43C)C12 (stereo partly drawn) [Compound 9d] | 4.83 | 4.92 | 4.88 | 4.95 | 4.95 | 4.72 | 4.73 | 4.76 | 4.52 | 4.55
5 | C=C(Cn1cc(-c2ccc(N(C)C)cc2)nn1)[C@@H]1CC[C@]2(C(=O)O)CC[C@]3(C)C(CCC4[C@@]5(C)CC[C@H](OC(C)=O)C(C)(C)C5CC[C@]43C)C12 (stereo partly drawn) [Compound 9e] | 4.71 | 4.53 | 4.45 | 4.52 | 4.58 | 4.48 | 4.48 | 4.51 | 4.45 | 4.52
6 | C=C(Cn1cc(-c2ccc(C(C)(C)C)cc2)nn1)[C@@H]1CC[C@]2(C(=O)O)CC[C@]3(C)C(CCC4[C@@]5(C)CC[C@H](OC(C)=O)C(C)(C)C5CC[C@]43C)C12 (stereo partly drawn) [Compound 9f] | 4.46 | 4.82 | 4.81 | 4.63 | 4.35 | 4.38 | 4.32 | 4.34 | < 4.30 | < 4.30
7 | C=C(Cn1cc(C2CCCC2)nn1)[C@@H]1CC[C@]2(C(=O)O)CC[C@]3(C)C(CCC4[C@@]5(C)CC[C@H](OC(C)=O)C(C)(C)C5CC[C@]43C)C12 (stereo partly drawn) [Compound 9g] | 4.58 | 4.51 | 4.36 | 4.54 | < 4.30 | 4.42 | 4.32 | 4.36 | < 4.30 | < 4.30
8 | C=C(Cn1cc(CN)nn1)[C@@H]1CC[C@]2(C(=O)O)CC[C@]3(C)C(CCC4[C@@]5(C)CC[C@H](OC(C)=O)C(C)(C)C5CC[C@]43C)C12 (stereo partly drawn) [Compound 9h] | 4.69 | 4.55 | < 4.30 | < 4.30 | 4.52 | 4.49 | < 4.30 | 4.51 | < 4.30 | < 4.30
9 | C=C(Cn1cc(-c2ccccc2)nn1)[C@@H]1CC[C@]2(C(=O)O)CC[C@]3(C)C(CCC4[C@@]5(C)CC[C@H](O)C(C)(C)C5CC[C@]43C)C12 (stereo partly drawn) [Compound 11a] | 4.78 | 4.62 | < 4.30 | 4.63 | < 4.30 | < 4.30 | < 4.30 | < 4.30 | < 4.30 | < 4.30
10 | C=C(Cn1cc(-c2ccccn2)nn1)[C@@H]1CC[C@]2(C(=O)O)CC[C@]3(C)C(CCC4[C@@]5(C)CC[C@H](O)C(C)(C)C5CC[C@]43C)C12 (stereo partly drawn) [Compound 11c] | 4.84 | 5.07 | < 4.30 | 5.14 | < 4.30 | < 4.30 | < 4.30 | < 4.30 | < 4.30 | < 4.30
11 | C=C(Cn1cc(-c2ccc(C(C)(C)C)cc2)nn1)[C@@H]1CC[C@]2(C(=O)O)CC[C@]3(C)C(CCC4[C@@]5(C)CC[C@H](O)C(C)(C)C5CC[C@]43C)C12 (stereo partly drawn) [Compound 11f] | < 4.30 | 4.86 | < 4.30 | 4.80 | < 4.30 | 4.44 | < 4.30 | < 4.30 | < 4.30 | < 4.30
12 | C=C(Cn1cc(C2CCCC2)nn1)[C@@H]1CC[C@]2(C(=O)O)CC[C@]3(C)C(CCC4[C@@]5(C)CC[C@H](O)C(C)(C)C5CC[C@]43C)C12 (stereo partly drawn) [Compound 11g] | 4.78 | 4.42 | < 4.30 | 4.63 | < 4.30 | 4.47 | < 4.30 | < 4.30 | < 4.30 | < 4.30
